Experimental data: PubChem BioAssay (NCI)
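In this assay, cells in 96-well plates receive the compound at five concentrations for 48 hours. Endpoints are linearly interpolated between the surrounding concentrations. Here, GI50 denotes the concentration required for 50% inhibition of growth. TGI marks complete inhibition of growth.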

Tests used:
Assay in all cases: inhibition of tumour cell growth, NCI panel, 48 h
KM12 colon = test system: KM12 colon
SK-MEL-5 melanoma = test system: SK-MEL-5 melanoma
HL-60(TB) leukemia = test system: HL-60(TB) leukemia
MALME-3M melanoma = test system: MALME-3M melanoma
NCI-H226 lung = test system: NCI-H226 lung
U251 CNS = test system: U251 CNS
SK-MEL-2 melanoma = test system: SK-MEL-2 melanoma
EKVX NSCLC = test system: EKVX NSCLC
HCT-15 colon = test system: HCT-15 colon
MDA-MB-231 breast = test system: MDA-MB-231 breast

## CC(=O)CC(=O)N(CCN(C(=O)CC(C)=O)c1ccccc1)c1ccccc1
KM12 colon
  TGI: > 100 µM
SK-MEL-5 melanoma
  TGI: > 100 µM
HL-60(TB) leukemia
  TGI: > 100 µM
MALME-3M melanoma
  TGI: > 100 µM
NCI-H226 lung
  TGI: > 100 µM
U251 CNS
  TGI: > 100 µM
SK-MEL-2 melanoma
  TGI: > 100 µM
EKVX NSCLC
  TGI: > 100 µM

## CN1CCC23c4c5ccc(O)c4OC2C(=NN=C2CCC4(O)C6Cc7ccc(O)c8c7C4(CCN6C)C2O8)CCC3(O)C1C5 (stereo not given)
HCT-15 colon
  TGI: > 100 µM
KM12 colon
  TGI: > 100 µM
SK-MEL-5 melanoma
  TGI: > 100 µM
HL-60(TB) leukemia
  TGI: > 100 µM
MALME-3M melanoma
  TGI: > 100 µM
NCI-H226 lung
  TGI: > 100 µM
U251 CNS
  TGI: > 100 µM
SK-MEL-2 melanoma
  TGI: > 100 µM
EKVX NSCLC
  TGI: > 100 µM

## CC1=CC(=O)C(C)(C2=NC(C)(C)CO2)c2ccccc21 (stereo not given)
HCT-15 colon
  TGI: > 100 µM
KM12 colon
  TGI: > 100 µM
SK-MEL-5 melanoma
  TGI: > 100 µM
HL-60(TB) leukemia
  TGI: > 100 µM
MALME-3M melanoma
  TGI: > 100 µM
NCI-H226 lung
  TGI: > 100 µM
U251 CNS
  TGI: > 100 µM
SK-MEL-2 melanoma
  TGI: > 100 µM
EKVX NSCLC
  TGI: > 100 µM

## O=c1c(O)c(-c2ccc(O)c(O)c2)oc2cc(O)ccc12
HCT-15 colon
  TGI: 98.4 µM
KM12 colon
  TGI: 31 µM
SK-MEL-5 melanoma
  TGI: 27.4 µM
HL-60(TB) leukemia
  TGI: > 84.1 µM
MALME-3M melanoma
  TGI: > 77 µM
NCI-H226 lung
  TGI: 39.5 µM
U251 CNS
  TGI: 35.6 µM
SK-MEL-2 melanoma
  TGI: 23.2 µM
EKVX NSCLC
  TGI: 65.8 µM

## CCOC(=O)C1Cc2c(ccc(OC)c2OC)C(=O)C1N (stereo not given)
HCT-15 colon
  TGI: > 100 µM
KM12 colon
  TGI: > 100 µM
SK-MEL-5 melanoma
  TGI: > 100 µM
HL-60(TB) leukemia
  TGI: > 100 µM
MALME-3M melanoma
  TGI: > 100 µM
NCI-H226 lung
  TGI: > 100 µM
U251 CNS
  TGI: > 100 µM
SK-MEL-2 melanoma
  TGI: > 100 µM
EKVX NSCLC
  TGI: 36.1 µM

## CCC[CH2][Sn]1([CH2]CCC)[O]C(c2ccccn2)S(=O)(=O)[O]1 (stereo not given)
HCT-15 colon
  GI50: 1.79 µM
  TGI: 3.5 µM
KM12 colon
  GI50: 12.7 µM
  TGI: 26 µM
SK-MEL-5 melanoma
  GI50: 12.5 µM
  TGI: 25 µM
HL-60(TB) leukemia
  GI50: 2.14 µM
  TGI: 5.04 µM
MALME-3M melanoma
  GI50: 1.63 µM
  TGI: 3.27 µM
NCI-H226 lung
  GI50: 16.2 µM
  TGI: 30 µM
U251 CNS
  GI50: 2.96 µM
  TGI: 11.8 µM
SK-MEL-2 melanoma
  GI50: 1.7 µM
  TGI: 3.22 µM
EKVX NSCLC
  GI50: 2.29 µM
  TGI: 5.61 µM

## O=C(O)/C(Cl)=C(\Cl)Nc1cccc(C(F)(F)F)c1
HCT-15 colon
  TGI: > 100 µM
HL-60(TB) leukemia
  TGI: > 100 µM
MALME-3M melanoma
  TGI: > 100 µM
U251 CNS
  TGI: > 100 µM
EKVX NSCLC
  TGI: > 100 µM

## CC1(C)CCC(=O)c2c(O)ccc(O)c21
HCT-15 colon
  TGI: > 100 µM
KM12 colon
  TGI: > 100 µM
SK-MEL-5 melanoma
  TGI: > 100 µM
MALME-3M melanoma
  TGI: > 100 µM
NCI-H226 lung
  TGI: > 100 µM
U251 CNS
  TGI: > 100 µM
SK-MEL-2 melanoma
  TGI: > 100 µM
EKVX NSCLC
  TGI: > 100 µM

## CCCCCCCCCOC(=S)NC
HCT-15 colon
  TGI: 36.1 µM
KM12 colon
  TGI: 57 µM
SK-MEL-5 melanoma
  TGI: 39.6 µM
HL-60(TB) leukemia
  TGI: 34.1 µM
MALME-3M melanoma
  TGI: 43.8 µM
U251 CNS
  TGI: 31.5 µM
SK-MEL-2 melanoma
  TGI: 41 µM
EKVX NSCLC
  TGI: 51.6 µM

## CC(=O)O[C@H](C[C@H](C(C)C)N(C)C(=O)[C@@H](NC(=O)[C@H]1CCCCN1C)C(C)C)c1nc(C(=O)N[C@@H](Cc2ccccc2)C[C@H](C)C(=O)O)c(C)s1
HCT-15 colon
  GI50: 0.00385 µM
  TGI: > 25 µM
KM12 colon
  GI50: < 0.0025 µM
  TGI: > 25 µM
MDA-MB-231 breast
  GI50: < 0.0025 µM
  TGI: > 25 µM
SK-MEL-5 melanoma
  GI50: < 0.0025 µM
  TGI: 0.0144 µM
MALME-3M melanoma
  GI50: 4.56 µM
  TGI: > 25 µM
U251 CNS
  GI50: < 0.0025 µM
  TGI: > 25 µM
SK-MEL-2 melanoma
  GI50: < 0.0025 µM
  TGI: > 25 µM
EKVX NSCLC
  GI50: 0.00266 µM
  TGI: > 25 µM

## COc1ccc(OC)c(/C=C/c2nnc(Nc3ccc(Cl)cc3)o2)c1
HCT-15 colon
  GI50: 34.1 µM
  TGI: > 100 µM
KM12 colon
  GI50: 17.4 µM
  TGI: > 100 µM
MDA-MB-231 breast
  GI50: 5.23 µM
  TGI: 53.1 µM
SK-MEL-5 melanoma
  GI50: 7.17 µM
  TGI: > 100 µM
HL-60(TB) leukemia
  GI50: > 100 µM
  TGI: > 100 µM
MALME-3M melanoma
  GI50: 9.87 µM
  TGI: 52.4 µM
U251 CNS
  GI50: 3.81 µM
  TGI: 14.3 µM
SK-MEL-2 melanoma
  GI50: 9.66 µM
  TGI: > 100 µM
EKVX NSCLC
  GI50: 40.5 µM
  TGI: > 100 µM

## CC(=O)[CH-]C(=O)c1ccccc1.CC(=O)[CH-]C(=O)c1ccccc1.O=C([O-])C[O-].O=C([O-])C[O-].[Ti+4]
HCT-15 colon
  GI50: 30.9 µM
  TGI: > 100 µM
KM12 colon
  GI50: 21.7 µM
  TGI: 69.2 µM
SK-MEL-5 melanoma
  GI50: 31.9 µM
  TGI: > 100 µM
HL-60(TB) leukemia
  GI50: 40 µM
  TGI: > 100 µM
MALME-3M melanoma
  GI50: 34.3 µM
  TGI: > 100 µM
NCI-H226 lung
  GI50: 19.4 µM
  TGI: 73 µM
U251 CNS
  GI50: 32 µM
  TGI: > 100 µM
SK-MEL-2 melanoma
  GI50: 30.5 µM
  TGI: > 100 µM
EKVX NSCLC
  GI50: 96.7 µM
  TGI: > 100 µM

## CCc1ccccc1NC(=O)/C(CC(=O)c1c(C)n([O-])c2ccccc2[n+]1=O)=N\NS(=O)(=O)c1ccc(C)cc1
HCT-15 colon
  TGI: > 100 µM
KM12 colon
  TGI: > 100 µM
HL-60(TB) leukemia
  TGI: 41.6 µM
MALME-3M melanoma
  TGI: > 100 µM
NCI-H226 lung
  TGI: > 100 µM
U251 CNS
  TGI: > 100 µM
SK-MEL-2 melanoma
  TGI: > 100 µM
EKVX NSCLC
  TGI: > 100 µM

## CSc1ccc(-c2cn3ccsc3n2)c(O)c1
HCT-15 colon
  TGI: > 55.8 µM
KM12 colon
  TGI: > 100 µM
SK-MEL-5 melanoma
  TGI: > 100 µM
HL-60(TB) leukemia
  TGI: > 63.1 µM
MALME-3M melanoma
  TGI: > 100 µM
NCI-H226 lung
  TGI: > 100 µM
U251 CNS
  TGI: > 100 µM
SK-MEL-2 melanoma
  TGI: > 100 µM
EKVX NSCLC
  TGI: > 100 µM

## C=C1C(=O)O[C@@H]2[C@H]1CC[C@H](C)[C@]1(O)CCC(=O)[C@@]21C
HCT-15 colon
  TGI: > 10 µM
KM12 colon
  TGI: > 10 µM
SK-MEL-5 melanoma
  TGI: > 10 µM
HL-60(TB) leukemia
  TGI: > 10 µM
MALME-3M melanoma
  TGI: > 10 µM
NCI-H226 lung
  TGI: > 10 µM
U251 CNS
  TGI: > 10 µM
SK-MEL-2 melanoma
  TGI: > 10 µM
EKVX NSCLC
  TGI: > 10 µM

## C/C(=N\O)c1sc(-n2nc(-c3ccccc3)cc2-c2ccccc2)nc1C
HCT-15 colon
  TGI: 22.9 µM
KM12 colon
  TGI: 17.3 µM
SK-MEL-5 melanoma
  TGI: 17.3 µM
HL-60(TB) leukemia
  TGI: 23 µM
MALME-3M melanoma
  TGI: 31 µM
NCI-H226 lung
  TGI: 17.6 µM
U251 CNS
  TGI: 16.3 µM
SK-MEL-2 melanoma
  TGI: > 65.6 µM
EKVX NSCLC
  TGI: > 31.6 µM

## Oc1c(Br)cc(Br)cc1CN(Cc1cc(Br)cc(Br)c1O)C1CCCCC1
HCT-15 colon
  TGI: > 100 µM
KM12 colon
  TGI: > 100 µM
MDA-MB-231 breast
  TGI: 72.4 µM
SK-MEL-5 melanoma
  TGI: 34.6 µM
MALME-3M melanoma
  TGI: 59.8 µM
NCI-H226 lung
  TGI: > 100 µM
U251 CNS
  TGI: 74.9 µM
SK-MEL-2 melanoma
  TGI: 45.4 µM
EKVX NSCLC
  TGI: 92.5 µM

## O=C1C(=O)c2cc([N+](=O)[O-])ccc2-c2ccccc21
HCT-15 colon
  GI50: 1.8 µM
  TGI: 3.59 µM
KM12 colon
  GI50: 1.79 µM
  TGI: 3.23 µM
MDA-MB-231 breast
  GI50: 1.64 µM
  TGI: 3.15 µM
SK-MEL-5 melanoma
  GI50: 1.8 µM
  TGI: 3.2 µM
MALME-3M melanoma
  GI50: 1.77 µM
  TGI: 3.4 µM
NCI-H226 lung
  GI50: 1.78 µM
  TGI: 3.27 µM
U251 CNS
  GI50: 1.35 µM
  TGI: 2.7 µM
SK-MEL-2 melanoma
  GI50: 1.55 µM
  TGI: 3.05 µM
EKVX NSCLC
  GI50: 1.62 µM
  TGI: 3.16 µM

## O=c1oc2ccc(Cl)cc2c(=O)n1-c1ccc(Cl)cc1F
HCT-15 colon
  GI50: 0.791 µM
  TGI: 6.69 µM
KM12 colon
  GI50: 1.52 µM
  TGI: 4.5 µM
MDA-MB-231 breast
  GI50: 0.397 µM
  TGI: 4.59 µM
SK-MEL-5 melanoma
  GI50: 0.205 µM
  TGI: 0.486 µM
MALME-3M melanoma
  GI50: 0.313 µM
  TGI: 1.55 µM
NCI-H226 lung
  GI50: 0.576 µM
  TGI: 3.3 µM
U251 CNS
  GI50: 0.566 µM
  TGI: > 31.6 µM
SK-MEL-2 melanoma
  GI50: 0.37 µM
  TGI: 2.26 µM
EKVX NSCLC
  GI50: 0.688 µM
  TGI: 11.3 µM
